Measured values published in patent US20100298141A1, “SUBSTITUTED PYRIDINE N-OXIDE HERBICIDES” (E. I. DU PONT DE NEMOURS AND COMPANY, priority 2007, published 2010).

What was measured:
rice = assay: Test C flooded paddy test; format: in vivo, Oryza sativa; conditions: Flood
Procedure, shortened: (§1)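 Pots were flooded to 3 cm above the soil surface at treatment, compound applied directly to the paddy water, and that depth held throughout. Plants were kept in a greenhouse for 13 to 15 days, then visually rated against untreated controls.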

lambsquarters = assay: Test C pre-/postemergence test; format: in vivo, Chenopodium album; conditions: for Lambsquarters plant response rating: preemergence, scale 0 (no effect) to 100 (complete control)
Procedure, shortened: (§2)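 Compounds in a non-phytotoxic solvent with surfactant applied preemergence to seeded pots and, at the same time, postemergence to plants 2–18 cm tall (1- to 4-leaf stage). Paddy tests: pots flooded to 3 cm, compound applied into the water, depth held throughout.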

wild oat = assay: Test C pre-/postemergence test; format: in vivo, Avena fatua
Procedure, shortened: as §2

duck salad = assay: Test C flooded paddy test; format: in vivo, Heteranthera limosa; conditions: Flood
Procedure, shortened: as §1

green foxtail = assay: Test C pre-/postemergence test; format: in vivo, Setaria viridis
Procedure, shortened: as §2

bermudagrass = assay: Test C pre-/postemergence test; format: in vivo, Cynodon dactylon
Procedure, shortened: as §2

soybean = assay: Test C pre-/postemergence test; format: in vivo, Glycine max
Procedure, shortened: as §2

yellow nutsedge = assay: Test C pre-/postemergence test; format: in vivo, Cyperus esculentus
Procedure, shortened: as §2

cocklebur = assay: Test C pre-/postemergence test; format: in vivo, Xanthium strumarium
Procedure, shortened: as §2

redroot pigweed = assay: Test A pre-/postemergence greenhouse test; format: in vivo, Amaranthus retroflexus; conditions: for Plant response rating, Pigweed: 0 to 100 scale where 0 is no effect and 100 is complete control; for Pigweed plant response rating: 0 to 100 scale
Procedure, shortened: (§3)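 Pre: directed soil spray on seeded loam/sand. Post: foliar spray, plants 2–10 cm, 1–2 leaf stage, applied concurrently. Vehicle: non-phytotoxic solvent + surfactant. Greenhouse ~10 d; visual injury rating vs untreated controls.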

downy brome = assay: Test C pre-/postemergence test; format: in vivo, Bromus tectorum
Procedure, shortened: as §2

kochia = assay: Test C pre-/postemergence test; format: in vivo, Kochia scoparia
Procedure, shortened: as §2

morningglory = assay: Test A pre-/postemergence greenhouse test; format: in vivo, Ipomoea spp.; conditions: for Plant response rating, Morningglory: 0 to 100 scale where 0 is no effect and 100 is complete control; for Morningglory plant response rating: 0 to 100 scale
Procedure, shortened: as §3

woolly cupgrass = assay: Test C pre-/postemergence test; format: in vivo, Eriochloa villosa
Procedure, shortened: as §2

blackgrass = assay: Test C pre-/postemergence test; format: in vivo, Alopecurus myosuroides
Procedure, shortened: as §2

[1] = 62 g ai/ha, scale 0 to 100 (0 no effect, 100 complete control)
[2] = 250 g ai/ha, scale 0 to 100, 0 no effect, 100 complete control, 13 to 15 days
[3] = Postemergence, 250 g ai/ha, scale 0 to 100, 0 no effect, 100 complete control
[4] = 62 g ai/ha, Preemergence, scale 0 to 100
[5] = 125 g ai/ha, preemergence, scale 0 (no effect) to 100 (complete control)
[6] = Postemergence, 125 g ai/ha, scale 0 to 100, 0 no effect, 100 complete control
[7] = Preemergence, 31 g ai/ha, scale 0 to 100 (0 no effect, 100 complete control)
[8] = preemergence, 250 g ai/ha, scale 0 (no effect) to 100 (complete control)
[9] = Postemergence, 500 g ai/ha, 0 is no effect, 100 is complete control
[10] = Preemergence, 125 g ai/ha, 0 no effect, 100 complete control

CC(Oc1c(CS(=O)(=O)c2cccc[n+]2[O-])c(C(F)(F)F)nn1C)C(F)(F)F (stereo not drawn) [Compound 82]
Plant response rating, Rice (rice; [1]): 0 | Plant response rating, Rice (rice; [2]): 60 | Lambsquarters plant response rating (lambsquarters; 125 g ai/ha): 0 | Plant response rating (0 to 100), Lambsquarters (lambsquarters; Postemergence, 31 g ai/ha): 0 | Plant response rating (0 to 100), Lambsquarters (lambsquarters; Postemergence, 62 g ai/ha): 0 | Plant response rating, Lambsquarters (lambsquarters; [3]): 0 | Lambsquarters plant response rating (lambsquarters; 250 g ai/ha): 100 | Oat, Wild plant response rating (wild oat; [4]): 60 | Oat, Wild plant response rating (wild oat; [5]): 80 | Plant response rating (0 to 100), Oat, Wild (wild oat; Postemergence, 31 g ai/ha): 0 | Plant response rating (0 to 100), Oat, Wild (wild oat; Postemergence, 62 g ai/ha): 0 | Plant response rating, Oat, Wild (wild oat; [6]): 0 | Plant response rating, Oat, Wild (wild oat; [3]): 40 | Plant response rating, Oat, Wild (wild oat; [7]): 35 | Oat, Wild plant response rating (wild oat; [8]): 80 | Plant response rating, Ducksalad (duck salad; [1]): 60 | Plant response rating, Ducksalad (duck salad; [2]): 80 | Foxtail, Green plant response rating (green foxtail; [4]): 95 | Foxtail, Green plant response rating (green foxtail; [5]): 98 | Plant response rating (0 to 100), Foxtail, Green (green foxtail; Postemergence, 31 g ai/ha): 0 | Plant response rating (0 to 100), Foxtail, Green (green foxtail; Postemergence, 62 g ai/ha): 40 | Plant response rating, Foxtail, Green (green foxtail; [6]): 60 | Plant response rating, Foxtail, Green (green foxtail; [3]): 80 | Plant response rating, Foxtail, Green (green foxtail; [7]): 95 | Foxtail, Green plant response rating (green foxtail; [8]): 100 | Bermudagrass plant response rating (bermudagrass; 62 g ai/ha, Preemergence, scale 0 to 100 (0 no effect, 100 complete control)): 100 | Bermudagrass plant response rating (bermudagrass; [5]): 100 | Plant response rating (0 to 100), Bermudagrass (bermudagrass; Postemergence, 31 g ai/ha): 0 | Plant response rating (0 to 100), Bermudagrass (bermudagrass; Postemergence, 62 g ai/ha): 0 | Plant response rating, Bermudagrass (bermudagrass; [6]): 0 | Plant response rating, Bermudagrass (bermudagrass; [3]): 0 | Plant response rating, Bermudagrass (bermudagrass; [7]): 100 | Bermudagrass plant response rating (bermudagrass; [8]): 100 | Soybean plant response rating (soybean; [4]): 30 | Plant response rating (0 to 100), Soybean (soybean; Postemergence, 31 g ai/ha): 0 | Plant response rating (0 to 100), Soybean (soybean; Postemergence, 62 g ai/ha): 0 | Plant response rating, Soybean (soybean; [6]): 0 | Plant response rating, Soybean (soybean; [3]): 20 | Plant response rating, Soybean (soybean; [7]): 0 | Soybean plant response rating (soybean; [8]): 70 | Nutsedge, Yellow plant response rating (yellow nutsedge; [4]): 60 | Nutsedge, Yellow plant response rating (yellow nutsedge; [5]): 75 | Plant response rating (0 to 100), Nutsedge, Yellow (yellow nutsedge; Postemergence, 31 g ai/ha): 0 | Plant response rating (0 to 100), Nutsedge, Yellow (yellow nutsedge; Postemergence, 62 g ai/ha): 0 | Plant response rating, Nutsedge, Yellow (yellow nutsedge; [6]): 0 | Plant response rating, Nutsedge, Yellow (yellow nutsedge; [3]): 0 | Plant response rating, Nutsedge, Yellow (yellow nutsedge; [7]): 40 | Nutsedge, Yellow plant response rating (yellow nutsedge; [8]): 100 | Cocklebur plant response rating (cocklebur; [4]): 0 | Cocklebur plant response rating (cocklebur; [5]): 0 | Plant response rating (0 to 100), Cocklebur (cocklebur; Postemergence, 31 g ai/ha): 0 | Plant response rating (0 to 100), Cocklebur (cocklebur; Postemergence, 62 g ai/ha): 0 | Plant response rating, Cocklebur (cocklebur; [6]): 0 | Plant response rating, Cocklebur (cocklebur; [3]): 0 | Plant response rating, Cocklebur (cocklebur; [7]): 0 | Cocklebur plant response rating (cocklebur; [8]): 0 | Plant response rating, Pigweed (redroot pigweed; Postemergence, 125 g ai/ha): 30 | Pigweed plant response rating (redroot pigweed; [9]): 70 | Pigweed plant response rating (redroot pigweed; [10]): 40 | Plant response rating, Pigweed (redroot pigweed; Preemergence, 500 g ai/ha): 100 | Bromegrass, Downy plant response rating (downy brome; [4]): 60 | Bromegrass, Downy plant response rating (downy brome; [5]): 80 | Plant response rating (0 to 100), Bromegrass, Downy (downy brome; Postemergence, 31 g ai/ha): 0 | Plant response rating (0 to 100), Bromegrass, Downy (downy brome; Postemergence, 62 g ai/ha): 0 | Plant response rating, Bromegrass, Downy (downy brome; [6]): 0 | Plant response rating, Bromegrass, Downy (downy brome; [3]): 0 | Plant response rating, Bromegrass, Downy (downy brome; [7]): 50 | Bromegrass, Downy plant response rating (downy brome; [8]): 100 | Kochia plant response rating (kochia; [4]): 100 | Kochia plant response rating (kochia; [5]): 100 | Plant response rating (0 to 100), Kochia (kochia; Postemergence, 31 g ai/ha): 0 | Plant response rating (0 to 100), Kochia (kochia; Postemergence, 62 g ai/ha): 0 | Plant response rating, Kochia (kochia; [6]): 0 | Plant response rating, Kochia (kochia; [3]): 0 | Plant response rating, Kochia (kochia; [7]): 100 | Kochia plant response rating (kochia; [8]): 100 | Plant response rating, Morningglory (morningglory; Postemergence, 125 g ai/ha): 40 | Morningglory plant response rating (morningglory; [9]): 50 | Morningglory plant response rating (morningglory; [10]): 60 | Plant response rating, Morningglory (morningglory; Preemergence, 500 g ai/ha): 100 | Cupgrass, Woolly plant response rating (woolly cupgrass; [4]): 90 | Cupgrass, Woolly plant response rating (woolly cupgrass; [5]): 90 | Plant response rating (0 to 100), Cupgrass, Woolly (woolly cupgrass; Postemergence, 31 g ai/ha): 0 | Plant response rating (0 to 100), Cupgrass, Woolly (woolly cupgrass; Postemergence, 62 g ai/ha): 0 | Plant response rating, Cupgrass, Woolly (woolly cupgrass; [6]): 20 | Plant response rating, Cupgrass, Woolly (woolly cupgrass; [3]): 50 | Plant response rating, Cupgrass, Woolly (woolly cupgrass; [7]): 80 | Cupgrass, Woolly plant response rating (woolly cupgrass; [8]): 98 | Blackgrass plant response rating (blackgrass; [4]): 100 | Blackgrass plant response rating (blackgrass; [5]): 100 | Plant response rating (0 to 100), Blackgrass (blackgrass; Postemergence, 31 g ai/ha): 0 | Plant response rating (0 to 100), Blackgrass (blackgrass; Postemergence, 62 g ai/ha): 60 | Plant response rating, Blackgrass (blackgrass; [6]): 90 | Plant response rating, Blackgrass (blackgrass; [3]): 95 | Plant response rating, Blackgrass (blackgrass; [7]): 100 | Blackgrass plant response rating (blackgrass; [8]): 100
